The values below come from US20040166062A1, “Ablation therapy using chemical shift magnetic resonance imaging” (priority 2003, published 2004).

The subject of one data set is renal tumor. From the text:
(§1) An MR-compatible needle is advanced into the lesions to introduce the ablation agent.

The next data set concerns lung tumor.
Text: as §1

The subject of the next data set is prostate tumor.
Text: as §1

The subject of a further data set is breast tumor.
Text: as §1

For data set [1], the system named is hepatocellular carcinoma less than about 3 cm. Particulars: randomized, controlled trial, patients with hepatocellular carcinoma less than about 3 cm; cited from earlier work.
In data set [2] the test system is unresectable hepatocellular carcinoma.
Procedure: After obtaining standard T1 and T2-weighted imaging, an MR-compatible 10 cm long, 22-gauge needle was advanced into the lesions. Baseline imaging was performed using a water-suppressed two-dimensional spoiled gradient-echo pulse sequence. […] The scanning parameters were: 30 degree flip angle, TE=4.2 msec, TR=34 msec, 34-38 cm field-of-view, ±16 kHz receiver bandwidth, 256×128 matrix, and 7 mm slice thickness.
Another data set concerns calf liver. Particulars: calf liver ex vivo, 8 cc glacial acetic acid injected by hand over 2 minutes. The text has this:
An MRI-compatible, 10 cm, 22-gauge needle was inserted into a calf liver that was placed in a transmit/receive birdcage coil. […] The offset frequency of the chemical saturation pulse was set at 170 Hz. […] A complete 3D data set was acquired every 15 seconds. Scanning parameters were: 20 degree flip angle, TE=4.2 msec, TR=34 msec, matrix=256×128×4, 1 signal average, and 32 kHz receiver bandwidth. A total of 15 temporal phases was acquired, each with approximately 15 second time resolution.
The time after injection appears in seconds in the lower left corner of each frame.

Another data set has as its system multifocal hepatoma. As to conditions: Patient 3, post-injection, signal low in intensity.
In another data set the test system is hepatic tumor. Kind of data set: Paper example: CS-MRI guided chemical ablation of a hepatic tumor. Particulars: for outcome of chemical ablation therapy: hepatic tumor, slow injection under CS-MRI. The method, then: as §1
A patient presents for ethanol ablation therapy of a hepatic tumor. The patient is prepared by placement on the MRI scanner platform and the spectrometer is calibrated for ^13C-labeled ethanol using standard T1 and T2-weighted imaging. An MR-compatible needle is advanced into the lesions to introduce the ablation agent. Dynamic two-dimensional, chemical shift MRI is performed during the slow injection of ^13C-labeled ethanol. The distribution of ^13C-labeled ethanol is then directly visualized using chemical shift MRI.
A patient presents for hot saline ablation therapy of a hepatic tumor. The patient is prepared by placement on the MRI scanner platform and the spectrometer is calibrated for ^23Na-labeled saline using standard T1 and T2-weighted imaging. An MR-compatible needle is advanced into the lesions to introduce the ablation agent. Dynamic two-dimensional, chemical shift MRI is performed during the slow injection of ^23Na-labeled saline. The distribution of ^23Na-labeled saline is then directly visualized using chemical shift MRI.

`CC(=O)O` [acetic acid]: the “outcome of chemical ablation therapy” value with renal tumor, in the data set on lung tumor, in the data set with prostate tumor and in the data set with breast tumor was “successful in destroying the tumor” in each case. The “effectiveness of ablation compared with ethanol ablation” value in data set [1] is “more effective than ethanol ablation”. The “size of the lesion versus distribution of the agent” value in [2] (Patient 2) is “closely matches”. Besides, in data set [2] (in vivo), the “extra-hepatic extravasation of the agent” value is “No extra-hepatic extravasation of the agent is observed”. Besides, the “distribution of the agent at the injection site on CS-MRI” value in the data set on calf liver is given as “focal accumulation of acetic acid adjacent to the needle tip”.

For `CCO` [ethanol], the “distribution of the agent on CS-MRI” value in the data set with multifocal hepatoma is listed as “focal signal accumulation due to ethanol injection is observed”.

In the case of ^13C-labeled acetic acid, the “outcome of chemical ablation therapy” value in the data set with hepatic tumor is “successful in destroying the tumor”.

For the compound ^13C-labeled ethanol, in the data set with hepatic tumor, the “outcome of chemical ablation therapy” value is listed as “successful in destroying the tumor”. Further, the “damage to surrounding tissues” value with hepatic tumor (in vivo) is reported as “without damage to surrounding tissues”.
